Source: publication PMC6044503 (ACS Omega, 2017)
pEC50, pIC50: −log10 of the molar value. Where a SMILES comes first, the peptide text is derived from it. [ ]: non-standard residue; d: D form. The star is where a group is joined. 2Nal = N[C@@H](Cc1ccc2ccccc2c1)C(=O)O; Cha = N[C@@H](CC1CCCCC1)C(=O)O; Aib = CC(C)(N)C(=O)O; Bz = O=C(c1ccccc1)*

Legend:
human Y2R [1] = molecular target: T1, human Y2R (Homo sapiens, UniProt P49146); experiment: biochemical; type: biochemical
T1 sequence (P49146 1-381): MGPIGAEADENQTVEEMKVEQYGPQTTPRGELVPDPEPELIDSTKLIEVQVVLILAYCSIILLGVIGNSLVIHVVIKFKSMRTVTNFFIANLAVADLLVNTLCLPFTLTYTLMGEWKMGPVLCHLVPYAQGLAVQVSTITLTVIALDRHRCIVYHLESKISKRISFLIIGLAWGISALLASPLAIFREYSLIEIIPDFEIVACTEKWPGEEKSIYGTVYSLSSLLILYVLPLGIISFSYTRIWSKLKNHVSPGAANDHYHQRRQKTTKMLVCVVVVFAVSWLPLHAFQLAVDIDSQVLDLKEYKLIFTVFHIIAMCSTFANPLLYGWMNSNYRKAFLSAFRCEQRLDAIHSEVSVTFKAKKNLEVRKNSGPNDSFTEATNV

male C57BL/6J mice = experiment: Food intake assay, bolus ip administration in lean mice; type: in vivo, mouse; settings: 3 h after administration, vs saline, mean ± SD
human Y2R [2] = molecular target: T1, human Y2R; experiment: biochemical; type: binding
[3] = Stability in 20% mouse serum/PBS; type: in vitro ADME; settings: mouse, 20% mouse serum in PBS
[4] = Pharmacokinetics of PYY analogues in mice; type: in vivo; settings: C57BL/6J, mouse, plasma, 1 mg/kg

CC[C@H](C)[C@H](NC(=O)[C@H](CC1CCCCC1)NC(=O)[C@H](Cc1c[nH]cn1)NC(=O)[C@H](CCCNC(=N)N)NC(=O)c1ccccc1)C(=O)N[C@@H](CC(N)=O)C(=O)N[C@@H](CC(C)C)C(=O)N[C@@H](CC1CCCCC1)C(=O)N[C@H](C(=O)N[C@@H](CCCNC(=N)N)C(=O)N[C@@H](CCC(N)=O)C(=O)N[C@@H](CCCNC(=N)N)C(=O)N[C@@H](CC1CCCCC1)C(N)=O)[C@@H](C)O [Compound 8] (Bz-RH[Cha]INL[Cha]TRQR[Cha]-NH2)
pEC50 (human Y2R [1]): 8.14 | % food intake inhibition (male C57BL/6J mice; bolus ip 500 nmol/kg): 17 ± 8% | % food intake inhibition (male C57BL/6J mice; bolus ip 1000 nmol/kg): 46 ± 8% | pIC50 (human Y2R [2]): 7.60 | remaining at 0.5 h [3]: 114%

CC[C@H](C)[C@H](NC(=O)[C@H](CC1CCCCC1)NC(=O)[C@H](Cc1c[nH]cn1)NC(=O)[C@H](CCCNC(=N)N)NC(=O)c1ccccc1)C(=O)N[C@@H](CC(N)=O)C(=O)N[C@@H](CC(C)C)C(=O)NC(C)(C)C(=O)N[C@H](C(=O)N[C@@H](CCCNC(=N)N)C(=O)N[C@@H](CCC(N)=O)C(=O)N[C@@H](CCCNC(=N)N)C(=O)N[C@@H](CC1CCCCC1)C(N)=O)[C@@H](C)O [Compound 10] (Bz-RH[Cha]INL[Aib]TRQR[Cha]-NH2)
pEC50 (human Y2R [1]): 8.96 | % food intake inhibition (male C57BL/6J mice; bolus ip 250 nmol/kg): 3 ± 4% | % food intake inhibition (male C57BL/6J mice; bolus ip 500 nmol/kg): 8 ± 7% | % food intake inhibition (male C57BL/6J mice; bolus ip 1000 nmol/kg): 39 ± 3% | % food intake inhibition (male C57BL/6J mice; bolus ip 2000 nmol/kg): 60 ± 7% | pIC50 (human Y2R [2]): 8.32 | remaining at 0.5 h [3]: 94%

CC[C@H](C)[C@H](NC(=O)[C@H](CC1CCCCC1)NC(=O)[C@H](Cc1c[nH]cn1)NC(=O)[C@H](CCCNC(=N)N)NC(=O)c1ccccc1)C(=O)N[C@@H](CC(N)=O)C(=O)N[C@@H](Cc1c[nH]c2ccccc12)C(=O)NC(C)(C)C(=O)N[C@H](C(=O)N[C@@H](CCCNC(=N)N)C(=O)N[C@@H](CCC(N)=O)C(=O)N[C@@H](CCCNC(=N)N)C(=O)N[C@@H](CC1CCCCC1)C(N)=O)[C@@H](C)O [Compound 11] (Bz-RH[Cha]INW[Aib]TRQR[Cha]-NH2)
pEC50 (human Y2R [1]): 8.62 | % food intake inhibition (male C57BL/6J mice; bolus ip 500 nmol/kg): 12 ± 3% | % food intake inhibition (male C57BL/6J mice; bolus ip 1000 nmol/kg): 36 ± 8% | % food intake inhibition (male C57BL/6J mice; bolus ip 2000 nmol/kg): 52 ± 5% | pIC50 (human Y2R [2]): 7.96 | remaining at 0.5 h [3]: 95%

CC[C@H](C)[C@H](NC(=O)[C@H](CC1CCCCC1)NC(=O)[C@H](Cc1c[nH]cn1)NC(=O)[C@H](CCCNC(=N)N)NC(=O)c1ccccc1)C(=O)N[C@@H](CC(N)=O)C(=O)N[C@@H](Cc1c[nH]c2ccccc12)C(=O)N[C@@H](CCCCN)C(=O)N[C@H](C(=O)N[C@@H](CCCNC(=N)N)C(=O)N[C@@H](CCC(N)=O)C(=O)N[C@@H](CCCNC(=N)N)C(=O)N[C@@H](CC1CCCCC1)C(N)=O)[C@@H](C)O [Compound 12] (Bz-RH[Cha]INWKTRQR[Cha]-NH2)
pEC50 (human Y2R [1]): 9.08 | % food intake inhibition (male C57BL/6J mice; bolus ip 1000 nmol/kg): 4 ± 13% | pIC50 (human Y2R [2]): 8.62 | remaining at 0.5 h [3]: 51%

CC[C@H](C)[C@H](NC(=O)[C@H](Cc1ccc2ccccc2c1)NC(=O)[C@H](Cc1c[nH]cn1)NC(=O)[C@H](CCCNC(=N)N)NC(=O)c1ccccc1)C(=O)N[C@@H](CC(N)=O)C(=O)N[C@@H](Cc1c[nH]c2ccccc12)C(=O)N[C@H](C(=O)N[C@H](C(=O)N[C@@H](CCCNC(=N)N)C(=O)N[C@@H](CCC(N)=O)C(=O)N[C@@H](CCCNC(=N)N)C(=O)N[C@@H](CC1CCCCC1)C(N)=O)[C@@H](C)O)[C@@H](C)CC [Compound 15] (Bz-RH[2Nal]INWITRQR[Cha]-NH2)
pEC50 (human Y2R [1]): 8.14 | % food intake inhibition (male C57BL/6J mice; bolus ip 500 nmol/kg): 19 ± 7% | pIC50 (human Y2R [2]): 7.72 | remaining at 0.5 h [3]: 100%

CC(C)C[C@H](NC(=O)[C@H](CC(N)=O)NC(=O)[C@H](CC1CCCCC1)NC(=O)[C@H](CC1CCCCC1)NC(=O)[C@H](Cc1cnc[nH]1)NC(=O)[C@H](CCCNC(=N)N)NC(=O)c1ccccc1)C(=O)NC(C)(C)C(=O)N[C@H](C(=O)N[C@@H](CCCNC(=N)N)C(=O)N[C@@H](CCC(N)=O)C(=O)N[C@@H](CCCNC(=N)N)C(=O)N[C@@H](CC1CCCCC1)C(N)=O)[C@@H](C)O [Compound 21, benzoyl-[Cha^27,28,36,Aib^31]PYY(25–36)] (Bz-RH[Cha][Cha]NL[Aib]TRQR[Cha]-NH2)
Cmax ([4]; ip): 406 nM | MRT ([4]; ip): 75 min | Tmax ([4]; ip): 15 min | bioavailability ([4]; ip): 6.8% | MRT ([4]; iv): 27 min | Vd ([4]; iv): 0.073 L/kg | clearance ([4]; iv): 2.7 mL/min/kg
